Reference: patent US12459974B2, “Bicyclic peptide ligands specific for Nectin-4” (priority 2018, dated 2025)
*1 amine or outer side, *2 acyl side, *3 side chain or, on linkers, in order; H or OH if unused. Where a SMILES comes first, the peptide text is derived from it. Bridges are numbered along the chain shown (N, C = ends). Roman numbers before positions name the chains, in order. [ ]: non-standard residue; d: D form. The star is where a group is joined. ξ: configuration not given here. TATA = O=C(CC[*:1])N1CN(C(=O)CC[*:2])CN(C(=O)CC[*:3])C1; Dolaproine = CO[C@@H]([C@@H]1CCCN1)[C@@H](C)C(=O)O; X1 = CC[C@H](C)C(C(CC(=O)[*:2])OC)N(C)[*:1]; 1Nal = N[C@@H](Cc1cccc2ccccc12)C(=O)O; X3 = O=C(CCCC(=O)[*:2])NCCC(=O)[*:1]; PABC = O=C(OCc1ccc(N[*:1])cc1)[*:2]; Hyp = O=C(O)[C@@H]1C[C@@H](O)CN1; hArg = N=C(N)NCCCC[C@H](N)C(=O)O; Cit = NC(=O)NCCC[C@H](N)C(=O)O; X2 = CC(N*)[C@@H](O)c1ccccc1; ξNMeV = CNC(C(=O)O)C(C)C; ξV = CC(C)C(N)C(=O)O; Sar = CNCC(=O)O

What was measured:
Panc2.13 xenograft = test: Example 3: in vivo efficacy in Panc2.13 xenograft (pancreatic cancer model) in Balb/c nude mice; parameters: species or system Mus Musculus; details: for Tumor volume / T/C / TGI: qw
LU-01-0412 PDX = test: Example 12: in vivo efficacy in Lu-01-0412 PDX model of lung cancer; parameters: species or system Mus Musculus
Method: Animals were checked daily for any effects of tumor growth and treatments on normal behavior such as mobility, food and water consumption (by looking only), body weight gain/loss, eye/hair matting and any other abnormal effect as stated in the protocol. Death and observed clinical signs were recorded on the basis of the numbers of animals within each subset.

CTG-0896 = details: qw iv
Excerpt: (§1) To evaluate the antitumor activity of Bicycle Agent in Low Passage Champions TumorGraft Models of Human Breast, Esophageal, and Bladder Cancer in Immunocompromised mice.
(§2) • Species: Mouse • Strain: Athymic Nude-Foxn1nu (Immune-compromised) • Source: Envigo: Indianapolis, Indiana • Gender: Female • Target age at initiation of dosing: At least 6-8 weeks of age • Target weight at initiation of dosing: At least 18 grams • Acclimation period: 3 days Experimental Design
(§3) Pre-study Animals: When sufficient stock animals reach 1.0-1.5 cm^3, tumors will be harvested for re-implantation into pre-study animals. Pre-study animals will be implanted unilaterally on the left flank with tumor fragments harvested from stock animals. Each animal is implanted from a specific passage lot and documented.
(§4) Study Animals: Pre-study tumor volumes are recorded for each experiment beginning seven to ten days after implantation. When tumors reach an average tumor volume of 150-300 mm^3, animals will be matched by tumor volume into treatment or control groups to be used for dosing and dosing initiated on Day 0.

CTG-1106 = details: qw iv
Excerpt: as §1, §2, §3, §4

CTG-1171 = details: qw iv
Excerpt: as §1, §2, §3, §4

CTG-1771 = details: qw iv
Excerpt: as §1, §2, §3, §4

NCI-H526 xenograft = test: Example 9.6: in vivo efficacy in NCI-H526 xenograft in Balb/c nude mice; details: for Tumor volume: iv
Method: The major endpoint was to see if the tumor growth could be delayed or mice could be cured. Tumor volume was measured three times weekly in two dimensions using a caliper, and the volume was expressed in mm^3 using the formula: V=0.5 a×b^2 where a and b are the long and short diameters of the tumor, respectively. The tumor size was then used for calculations of T/C value. The T/C value (in percent) is an indication of antitumor effectiveness; T and C are the mean volumes of the treated and control groups, respectively, on a given day. TGI was calculated for each group using the formula: TGI (%)=[1−(Ti−T0)/(Vi−V0)]×100; Ti is the average tumor volume of a treatment group on a given day, T0 is the average tumor volume of the treatment group on the day of treatment start, Vi is the average tumor volume of the vehicle control group on the same day with Ti, and V0 is the average tumor volume of the vehicle group on the day of treatment start.
A one-way ANOVA was performed to compare tumor volume among groups, and when a significant F-statistics (a ratio of treatment variance to the error variance) was obtained, comparisons between groups were carried out with Games-Howell test. All data were analyzed using GraphPad Prism 5.0. P<0.05 was considered to be statistically significant.
• Species: Mus Musculus • Strain: Balb/c nude • Age: 6-8 weeks • Sex: female • Body weight: 18-22 g • Number of animals: 21 mice plus spare 3.1.2.
The NCI-H526 cells were maintained in medium supplemented with 10% heat inactivated fetal bovine serum at 37° C. in an atmosphere of 5% CO2 in air. The tumor cells were routinely subcultured twice weekly. The cells growing in an exponential growth phase were harvested and counted for tumor inoculation.
Each mouse was inoculated subcutaneously at the right flank with NCI-H526 tumor cells (5.0×10^6 in 0.2 ml of PBS for tumor development. 21 animals were randomized when the average tumor volume reached 181 mm^3. The test article administration and the animal numbers in each group were shown in the experimental design table.
Tumor growth inhibition rate for test articles in the NCI-H526 xenograft model was calculated based on tumor volume measurements at day 14 after the start of the treatment.

CC[C@H](C)C(C(CC(=O)N1CCC[C@H]1[C@H](OC)[C@@H](C)C(=O)NC(C)[C@@H](O)c1ccccc1)OC)N(C)C(=O)[C@@H](NC(=O)C(C(C)C)N(C)C(=O)OCc1ccc(NC(=O)[C@H](CCCNC(N)=O)NC(=O)C(NC(=O)CCCC(=O)NCCC(=O)N(C)CC(=O)N(C)CC(=O)N(C)CC(=O)N(C)CC(=O)N(C)CC(=O)N(C)CC(=O)N(C)CC(=O)N(C)CC(=O)N(C)CC(=O)N(C)CC(=O)N[C@H]2CSCCC(=O)N3CN4CN(C3)C(=O)CCSC[C@H](NC(=O)[C@@H](CC(=O)O)NC(=O)[C@H](Cc3cccc5ccccc35)NC(=O)[C@@H]3CCCN3C2=O)C(=O)N[C@@H](CCSC)C(=O)N[C@@H](CCCCNC(=N)N)C(=O)N[C@@H](CC(=O)O)C(=O)N[C@@H](Cc2c[nH]c3ccccc23)C(=O)N[C@@H](CO)C(=O)N[C@@H]([C@@H](C)O)C(=O)N2CCC[C@H]2C(=O)N2C[C@H](O)C[C@H]2C(=O)N[C@@H](Cc2c[nH]c3ccccc23)C(=O)N[C@H](C(N)=O)CSCCC4=O)C(C)C)cc1)C(C)C (stereo partly drawn) [BCY8245, MMAE-PABC-Cit-Val-Glutaryl-BCY8234] (I: [Sar][Sar][Sar][Sar][Sar][Sar][Sar][Sar][Sar][Sar]CP[1Nal][dD]CM[hArg]DWSTP[Hyp]WC-NH2 / II: [ξV][Cit][PABC][ξNMeV]V[X1][Dolaproine]-X2; linker I:11-I:15-I:25 via TATA; linker I:N-II:N via X3)
Tumor volume (Panc2.13 xenograft; 3 mpk, iv, day 2): 160 ± 33 mm^3 | Tumor volume (Panc2.13 xenograft; 3 mpk, iv, day 4): 191 ± 39 mm^3 | Tumor volume (Panc2.13 xenograft; 3 mpk, iv, day 7): 215 ± 53 mm^3 | Tumor volume (Panc2.13 xenograft; 3 mpk, iv, day 9): 242 ± 62 mm^3 | Tumor volume (Panc2.13 xenograft; 3 mpk, iv, day 11): 259 ± 59 mm^3 | Tumor volume (Panc2.13 xenograft; 3 mpk, iv, day 14): 271 ± 54 mm^3 | T/C (Panc2.13 xenograft; 3 mpk, day 14): 49.6% | TGI (Panc2.13 xenograft; 3 mpk, day 14): 69.2% | Tumor volume (Panc2.13 xenograft; 3 mpk, day 14, Mean ± SEM (Table 19)): 271 ± 54 mm^3 | Tumor volume (Panc2.13 xenograft; 5 mpk, iv, day 0 after start of treatment): 149 ± 18 mm^3 | Tumor volume (Panc2.13 xenograft; 5 mpk, iv, day 2): 180 ± 11 mm^3 | Tumor volume (Panc2.13 xenograft; 5 mpk, iv, day 4): 231 ± 33 mm^3 | Tumor volume (Panc2.13 xenograft; 5 mpk, iv, day 7): 242 ± 34 mm^3 | Tumor volume (Panc2.13 xenograft; 5 mpk, iv, day 9): 248 ± 40 mm^3 | Tumor volume (Panc2.13 xenograft; 5 mpk, iv, day 11): 231 ± 37 mm^3 | Tumor volume (Panc2.13 xenograft; 5 mpk, iv, day 14): 238 ± 40 mm^3 | T/C (Panc2.13 xenograft; 5 mpk, day 14): 43.6% | TGI (Panc2.13 xenograft; 5 mpk, day 14): 77.5% | Tumor volume (Panc2.13 xenograft; 5 mpk, day 14, Mean ± SEM (Table 19)): 238 ± 40 mm^3 | anti-tumour activity (in words) (Panc2.13 xenograft; mouse, in vivo): good anti-tumour activity | efficacy (in words) (LU-01-0412 PDX; 1 mg/kg qw): reduction in tumour growth rate | efficacy (in words) (LU-01-0412 PDX; 3 mg/kg qw): marked tumor regression | animals with no tumour regrowth (LU-01-0412 PDX; 3 mg/kg qw, after cessation of dosing (Day 21) out to 105 days post study start): 5/6 | response of large tumors (vehicle treated group) to a single dose (in words) (LU-01-0412 PDX; single dose): regressed | efficacy (in words) (CTG-0896): excellent efficacy evoking tumor regression | efficacy (in words) (CTG-1106): excellent efficacy evoking tumor regression | efficacy (in words) (CTG-1171): excellent efficacy evoking tumor regression | efficacy (in words) (CTG-1771): excellent efficacy evoking tumor regression | TGI (NCI-H526 xenograft; 3 mg/kg biw, day 14): 21.6% | Tumor volume (TV) (NCI-H526 xenograft; 3 mg/kg biw, day 14): 1109 mm^3 | TGI (NCI-H526 xenograft; 3 mg/kg qw, day 14): 13.4% | Tumor volume (TV) (NCI-H526 xenograft; 3 mg/kg qw, day 14): 1205 mm^3 | animal bodyweight loss (NCI-H526 xenograft; 5 mg/kg biw): over 10% | TGI (NCI-H526 xenograft; 5 mg/kg qw, day 14): 75.0% | Tumor volume (TV) (NCI-H526 xenograft; 5 mg/kg qw, day 14): 476 mm^3 | Tumor volume (NCI-H526 xenograft; 3 mpk, biw, day 0 after the start of treatment): 182 mm^3 | Tumor volume (NCI-H526 xenograft; 3 mpk, biw, day 2): 232 mm^3 | Tumor volume (NCI-H526 xenograft; 3 mpk, biw, day 4): 308 mm^3 | Tumor volume (NCI-H526 xenograft; 3 mpk, biw, day 7): 440 mm^3 | Tumor volume (NCI-H526 xenograft; 3 mpk, biw, day 9): 530 mm^3 | Tumor volume (NCI-H526 xenograft; 3 mpk, biw, day 12): 810 mm^3 | Tumor volume (NCI-H526 xenograft; 3 mpk, biw, day 14): 1109 mm^3 | T/C (NCI-H526 xenograft; 3 mpk, biw, day 14): 81.3% | TGI (NCI-H526 xenograft; 3 mpk, biw, day 14): 21.6% | Tumor Volume (Mean ± SEM) (NCI-H526 xenograft; 3 mpk, biw, day 14): 1109 ± 250 mm^3 | Tumor volume (NCI-H526 xenograft; 3 mpk, qw, day 0 after the start of treatment): 180 mm^3 | Tumor volume (NCI-H526 xenograft; 3 mpk, qw, day 2): 256 mm^3 | Tumor volume (NCI-H526 xenograft; 3 mpk, qw, day 4): 403 mm^3 | Tumor volume (NCI-H526 xenograft; 3 mpk, qw, day 7): 545 mm^3 | Tumor volume (NCI-H526 xenograft; 3 mpk, qw, day 9): 657 mm^3 | Tumor volume (NCI-H526 xenograft; 3 mpk, qw, day 12): 1019 mm^3 | Tumor volume (NCI-H526 xenograft; 3 mpk, qw, day 14): 1205 mm^3 | T/C (NCI-H526 xenograft; 3 mpk, qw, day 14): 88.3% | TGI (NCI-H526 xenograft; 3 mpk, qw, day 14): 13.4% | Tumor Volume (Mean ± SEM) (NCI-H526 xenograft; 3 mpk, qw, day 14): 1205 ± 79 mm^3 | Tumor volume (NCI-H526 xenograft; 5 mpk, qw, day 0 after the start of treatment): 180 mm^3 | Tumor volume (NCI-H526 xenograft; 5 mpk, qw, day 2): 209 mm^3 | Tumor volume (NCI-H526 xenograft; 5 mpk, qw, day 4): 236 mm^3 | Tumor volume (NCI-H526 xenograft; 5 mpk, qw, day 7): 383 mm^3 | Tumor volume (NCI-H526 xenograft; 5 mpk, qw, day 9): 375 mm^3 | Tumor volume (NCI-H526 xenograft; 5 mpk, qw, day 12): 365 mm^3 | Tumor volume (NCI-H526 xenograft; 5 mpk, qw, day 14): 476 mm^3 | T/C (NCI-H526 xenograft; 5 mpk, qw, day 14): 34.9% | TGI (NCI-H526 xenograft; 5 mpk, qw, day 14): 75.0% | Tumor Volume (Mean ± SEM) (NCI-H526 xenograft; 5 mpk, qw, day 14): 476 ± 103 mm^3 | tumor response (in words) (NCI-H526 xenograft; mouse, in vivo): tumor growth is restrained by BCY8245 but the tumor does not undergo regression
